Biological target: T1, pyruvate kinase (PK-1 from rabbit muscle) (Oryctolagus cuniculus, UniProt P11974)
T1 construct: gene PKM; purified PK-1 from rabbit muscle
Experiment: enzyme kinetics, ATP production by luminescence (CellTiter-Glo), competitive model fit
Assay type: biochemical

T1 sequence (P11974 2-531): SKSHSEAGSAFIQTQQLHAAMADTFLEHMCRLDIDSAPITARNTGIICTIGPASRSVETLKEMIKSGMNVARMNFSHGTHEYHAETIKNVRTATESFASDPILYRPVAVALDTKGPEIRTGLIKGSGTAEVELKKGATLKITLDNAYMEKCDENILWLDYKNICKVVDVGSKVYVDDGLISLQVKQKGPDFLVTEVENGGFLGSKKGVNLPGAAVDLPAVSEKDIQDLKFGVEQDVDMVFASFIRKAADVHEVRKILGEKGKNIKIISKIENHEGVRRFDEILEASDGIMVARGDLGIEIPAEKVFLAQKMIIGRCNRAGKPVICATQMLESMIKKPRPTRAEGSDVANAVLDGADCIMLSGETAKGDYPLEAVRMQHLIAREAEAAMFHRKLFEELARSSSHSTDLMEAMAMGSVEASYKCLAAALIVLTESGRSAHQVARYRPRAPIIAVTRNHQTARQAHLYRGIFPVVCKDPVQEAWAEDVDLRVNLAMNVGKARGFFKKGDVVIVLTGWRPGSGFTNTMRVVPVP

- Ki: 3 ± 0.29 mM
Compound: CCOC(=O)C(C)=O [ethyl pyruvate]
